Source: patent US20240376119A1, “SPIRO COMPOUND AND USE THEREOF” (CSPC Zhongqi Pharmaceutical Technology (Shijiazhuang) Co., …, priority 2021, published 2024)

Columns and labels:
[1] = Mouse tolerance assay (once daily for 7 consecutive days); assay type: in vivo; conditions: mouse, in vivo; for Number of animals (number of deaths/total number): 7 days
Experimental: • Assay animals: ICR mice, female, 5 weeks old • Solvent: 2% DMSO+98% (0.5% MC), treated by sufficient vortex and sonicated to obtain a uniform suspension • Assay method: Female ICR mice were divided into 4 groups according to weight balance, with 5 mice in each group. The administration doses were 50 mg/kg and 200 mg/kg respectively. The compound was administrated once daily for 7 consecutive days.

[2] = tested on: human acute myeloid leukemia MV-4-11 cells; test: In vitro inhibitory effect on the proliferation of MV-4-11 cells (MTT, 72 h); assay type: cell-based; conditions: MV4-11, 72 hours exposure
Experimental: The human acute myeloid leukemia MV-4-11 cells used in the assay were purchased from Shanghai Institutes for Biological Sciences, Chinese Academy of Sciences. The complete culture medium required for cell culture was IMDM (GIBCO Company), which was supplemented with 10% fetal bovine serum (GIBCO Company). Cells were cultured in a 37° C., 5% CO2 incubator. The reagents used in the assay included dimethyl sulfoxide (purchased from Tianjin Kemiou Chemical Reagent Co., Ltd.), and MTT (Shanghai Topbiochem Co., Ltd., CAS. NO. 298-93-1). The test substance was sealed and stored at 4° C.
Dimethyl sulfoxide was used as the solvent to fully dissolve the test substance and prepare a stock solution with a concentration of 5×10^−2 mol/L. The stock solution was stored at −20° C. A complete culture medium was used as the diluent, and the test substance was diluted to different concentrations in a gradient for later use. 100 µL/well (2×10^4 cells/well) of a suspension of MV-4-11 cells in the complete culture medium was added to a 96-well culture plate. 100 μL/well of the corresponding test substances at different concentrations were added respectively. 8 concentrations were set for each test substance, and 3 duplicate wells were set for each concentration. The plate was cultured in a 37° C., 5% CO2 incubator. 20 μL/well of MTT was added after 72 hours of exposure to the test substances. The plate was cultured for 4 hours in a 37° C., 5% CO2 incubator. The supernatant was discarded, and 150 μL/well of dimethyl sulfoxide was added. The plate contents were oscillated and mixed evenly. The microplate reader was used to detect the OD value at a wavelength of 550 nm. The well only containing the cell suspension without test substance was a control well, and the well only containing the complete culture medium was a blank well. The inhibition rate of the cell growth was calculated with the following formula: • Inhibition rate=(ODcontrol well-ODtest well)/(ODcontrol well-ODblank well)*100%. According to the inhibition rates at each concentration, SPSS software was used to calculate the half inhibitory concentration IC50 value.

[2H][C@@]1(N)c2ccccc2OC12CCN(c1nc(N)c(Sc3ccnc(N)c3Cl)nc1C(C)=O)CC2 [Compound 56, (R)-1-(5-amino-6-((2-amino-3-chloropyridine-4-yl)sulfanyl)-3-(3-amino-3-deuterium-spiro[benzofuran-2,4′-piperidine]-1′-yl)pyrazine-2-yl)ethanone]
MTD at 7 days ([1]; female, ICR): > 200 mg/kg | Number of animals (number of deaths/total number) ([1]; female, ICR, 50 mg/kg): 0/5F | Number of animals (number of deaths/total number) ([1]; female, ICR, 200 mg/kg): 0/5F | tolerance in mice compared with positive control compound TW-45 [1]: significantly better | IC50 [2]: ≤ 20 nM
